# Laboratory results as given in the SangsterLogP compilation.
row,Compound,logP
1,Cc1ccc2cc(C)c(C)cc2c1,4.7
2,Cc1cc2c(C)ccc(C)c2cc1C,4.74
3,Cc1ccc(C)c2c(C)cccc12,4.48
4,Cc1ccc2c(C)ccc(C)c2c1,4.55
5,Cc1cc(C)c2c(C)cccc2c1,4.52
6,Cc1ccc2c(C)c(C)ccc2c1C,4.95
7,Cc1ccc(C)c2ccccc12,4.22
8,Cc1ccc2ccc(C)cc2c1,4.37
9,Cc1ccc2cc(C)ccc2c1,4.39
10,Cc1cc(C)c2cc(C)ccc2c1,4.38
11,Cc1cccc2c(C)cccc12,4.22
12,Cc1ccc2cccc(C)c2c1,4.19
13,Cc1ccc2c(C)cccc2c1,4.27
14,Cc1cc(C)c2ccccc2c1C,4.49
15,Cc1ccc2ccccc2c1,3.96
